Read-outs that look alike come from different tables or passages of the source.
Experiment: Antimicrobial activity assay: whole-cell MIC by broth microdilution (NCCLS M7-A6)
Type: cell-based
Procedure: Whole-cell antimicrobial activity was determined by broth microdilution using the National Committee for Clinical Laboratory Standards (NCCLS) recommended procedure, Document M7-A6, “Methods for Dilution Susceptibility Tests for Bacteria that Grow Aerobically”. The compounds were tested in serial two-fold dilutions ranging from 0.016 to 16 mcg/mL. Compounds were evaluated against a panel of Gram-positive organisms, including Staphylococcus aureus WCUH29, Streptococcus pneumoniae 1629, Streptococcus pyogenes CN 10, and Enterococcus faecalis 2. In addition, compounds were evaluated against a panel of Gram-negative strains including Haemophilus influenzae NEMC1, E. coli 7623, and Moraxella catarrhalis Ravasio. The minimum inhibitory concentration (MIC) was determined as the lowest concentration of compound that inhibited visible growth. A mirror reader was used to assist in determining the MIC endpoint.
Compounds of the present invention have MIC's ≦20 μg/ml versus all the organisms named above.

[1] = versus all the organisms named above (S. aureus WCUH29, S. pneumoniae 1629, S. pyogenes CN 10, E. faecalis 2, H. influenzae NEMC1, E. coli 7623, M. catarrhalis Ravasio), read-out: MIC

SMILES | MIC [1] | MIC
COc1ccc2ncc(F)c(CCN3CC[C@@H](NCc4cc5c(cn4)OCCO5)[C@@H](O)C3)c2n1.Cl.Cl (single isomer, unassigned; enantiomer 2) [Example 158] | ≤ 2 µg/mL | –
COc1ccc2ncc(Cl)c(CCN3CC[C@H](NCc4ccc5c(n4)NC(=O)CO5)[C@H](O)C3)c2n1.Cl.Cl (single isomer, unassigned; enantiomer 2) [Example 10, 6-({(cis)-1-[2-(3-Chloro-6-methoxy-[1,5]naphthyridin-4-yl)-ethyl]-3-hydroxy-piperidin-4-ylamino}-methyl)-4H-pyrido[3,2-b][1,4]oxazin-3-one Dihydrochloride Enantiomer 2] | ≤ 2 µg/mL | –
COc1ccc2ncc(F)c(CCN3CCC(NCc4ccc5c(n4)NCCS5)CC3)c2c1.Cl.Cl [Example 81, N-(3,4-dihydro-2H-pyrido[3,2-b][1,4]thiazin-6-ylmethyl)-1-{2-[3-fluoro-6-(methoxy)-4-quinolinyl]ethyl}-4-piperidinamine dihydrochloride] | – | ≤ 2 µg/mL
COc1ccc2ncc(Cl)c(CCN3CC[C@H](NCc4ccc5c(n4)NC(=O)CS5)[C@H](O)C3)c2n1.Cl.Cl (single isomer, unassigned; enantiomer 1) [Example 11, 6-({(cis)-1-[2-(3-Chloro-6-methoxy-[1,5]naphthyridin-4-yl)-ethyl]-3-hydroxy-piperidin-4-ylamino}-methyl)-4H-pyrido[3,2-b][1,4]thiazin-3-one Dihydrochloride Enantiomer 1] | ≤ 2 µg/mL | –
COc1ccc2ncc(Cl)c(CCN3CCC(NCc4ccc5c(n4)NC(=O)CS5)CC3)c2c1.Cl.Cl.Cl [Example 13, 6-({1-[2-(3-Chloro-6-methoxyquinolin-4-yl)ethyl]piperidin-4-ylamino}methyl)-4H-pyrido[3,2-b][1,4]thiazin-3-one Trihydrochloride] | ≤ 2 µg/mL | –
COc1ccc2ncc(Cl)c(CCN3CCC(NCc4cc5c(cn4)OCCO5)(C(N)=O)CC3)c2n1.Cl.Cl [Example 91, 1-{2-[3-chloro-6-(methoxy)-1,5-naphthyridin-4-yl]ethyl}-4-[(2,3-dihydro[1,4]dioxino[2,3-c]pyridin-7-ylmethyl)amino]-4-piperidinecarboxamide dihydrochloride] | ≤ 2 µg/mL | –
COc1ccc2ncc(F)c(CCN3CCC(NCc4ccc5c(c4)OCCO5)CC3)c2n1 [Example 157, N-(2,3-dihydro-1,4-benzodioxin-6-ylmethyl)-1-{2-[3-fluoro-6-(methoxy)-1,5-naphthyridin-4-yl]ethyl}-4-piperidinamine] | ≤ 2 µg/mL | –
COc1ccc2ncc(F)c(CCN3CCC(NC(=O)c4ccc5c(n4)NC(=O)CO5)CC3)c2c1.Cl [Example 94, N-(1-{2-[3-fluoro-6-(methoxy)-4-quinolinyl]ethyl}-4-piperidinyl)-3-oxo-3,4-dihydro-2H-pyrido[3,2-b][1,4]oxazine-6-carboxamide hydrochloride] | ≤ 2 µg/mL | –
COc1ccc2ncc(F)c(CCN3CCC(NCc4ccc5c(n4)NC(=O)CS5)CC3)c2c1.Cl.Cl [Example 31, 6-({1-[2-(3-Fluoro-6-methoxyquinolin-4-yl)ethyl]piperidin-4-ylamino}methyl)-4H-pyrido[3,2-b][1,4]thiazin-3-one dihydrochloride] | ≤ 2 µg/mL | –
COc1ccc2ncc(F)c(CCN3CCC(NCc4ccc5c(n4)NC(=O)CO5)CC3)c2n1.Cl.Cl [Example 55, 6-{[(1-{2-[3-fluoro-6-(methoxy)-1,5-naphthyridin-4-yl]ethyl}-4-piperidinyl)amino]methyl}-2H-pyrido[3,2-b][1,4]oxazin-3(4H)-one dihydrochloride] | ≤ 2 µg/mL | –
COc1ccc2ncc(F)c(CCN3CCC(C)(NCc4ccc5c(n4)NC(=O)CS5)CC3)c2n1.Cl.Cl [Example 139, 6-{[(1-{2-[3-fluoro-6-(methoxy)-1,5-naphthyridin-4-yl]ethyl}-4-methyl-4-piperidinyl)amino]methyl}-2H-pyrido[3,2-b][1,4]thiazin-3(4H)-one dihydrochloride] | ≤ 2 µg/mL | –
COc1ccc2ncc(F)c(CCN3CCC(NCc4cnc5c(c4)NC(=O)CS5)CC3)c2c1.Cl.Cl [Example 84, 7-{[(1-{2-[3-fluoro-6-(methoxy)-4-quinolinyl]ethyl}-4-piperidinyl)amino]methyl}1H-pyrido[2,3-b][1,4]thiazin-2(3H)-one dihydrochloride] | ≤ 2 µg/mL | –
COc1ccc2ncc(F)c(CCN3CCC(NCc4cc5c(cn4)SCCN5)CC3)c2n1.Cl.Cl [Example 54, N-(2,3-Dihydro-1H-pyrido[3,4-b][1,4]thiazin-7-ylmethyl)-1-{2-[3-fluoro-6-(methoxy)-1,5-naphthyridin-4-yl]ethyl}-4-piperidinamine dihydrochloride] | ≤ 2 µg/mL | –
COc1ccc2ncc(Cl)c(CCN3CC[C@H](NCc4ccc5c(n4)NC(=O)CO5)[C@H](O)C3)c2c1.Cl.Cl (single isomer, unassigned; enantiomer 1) [Example 5, 6-({(cis)-1-[2-(3-Chloro-6-methoxy-quinolin-4-yl)-ethyl]-3-hydroxy-piperidin-4-ylamino}-methyl)-4H-pyrido[3,2-b][1,4]oxazin-3-one Dihydrochloride Enantiomer 1] | ≤ 2 µg/mL | –
COc1cc(F)c2ncc(F)c(CCN3CC[C@H](NCc4ccc5c(c4)OCCO5)[C@H](F)C3)c2c1.Cl.Cl (single isomer, unassigned; enantiomer 1) [Example 147, cis-1-{2-[3,8-difluoro-6-(methoxy)-4-quinolinyl]ethyl}-N-(2,3-dihydro-1,4-benzodioxin-6-ylmethyl)-3-fluoro-4-piperidinamine dihydrochloride, Enantiomer 1] | ≤ 2 µg/mL | –
Cl.Cl.Clc1cnc2ccc3c(c2c1CCN1CCC(NCc2cc4c(cn2)OCCO4)CC1)OCCO3 [Example 52, {1-[2-(9-Chloro-2,3-dihydro-[1,4]dioxino[2,3-f]quinolin-10-yl)-ethyl]-piperidin-4-yl}-(2,3-dihydro-[1,4]dioxino[2,3-c]pyridin-7-ylmethyl)-amine dihydrochloride] | ≤ 2 µg/mL | –
Cc1ccc2ncc(Cl)c(CCN3CCC(NCc4ccc5c(n4)NC(=O)CS5)CC3)c2n1.Cl.Cl [Example 23, 6-({1-[2-(3-Chloro-6-methyl-[1,5]naphthyridin-4-yl)-ethyl]-piperidin-4-ylamino}-methyl)-4H-pyrido[3,2-b][1,4]thiazin-3-one Dihydrochloride] | ≤ 2 µg/mL | –
COc1ccc2ncc(F)c(C(O)CN3CCC(NCc4cc5c(cn4)OCCO5)CC3)c2n1.Cl.Cl.O (single isomer, unassigned; enantiomer 2) [Example 100, 2-{4-[(2,3-Dihydro[1,4]dioxino[2,3-c]pyridin-7-ylmethyl)amino]-1-piperidinyl}-1-[3-fluoro-6-(methoxy)-1,5-naphthyridin-4-yl]ethanol Dihydrochloride Hydrate Enantiomer 2] | ≤ 2 µg/mL | –
COc1ccc2ncc(Cl)c(CCN3CC[C@@H](NCc4ccc5c(n4)NC(=O)CO5)[C@H](O)C3)c2c1.Cl.Cl.Cl (single isomer, unassigned; enantiomer 2) [Example 18, 6-({(trans)-1-[2-(3-Chloro-6-methoxyquinolin-4-yl)ethyl]3-hydroxypiperidin-4-ylamino}methyl)-4H-pyrido[3,2-b][1,4]oxazin-3-one Trihydrochloride enantiomer 2] | ≤ 2 µg/mL | –
COc1ccc2ncc(F)c(CCN3CCC(C)(NCc4cc5c(cn4)OCCO5)CC3)c2n1.Cl.Cl [Example 140, N-(2,3-dihydro[1,4]dioxino[2,3-c]pyridin-7-ylmethyl)-1-{2-[3-fluoro-6-(methoxy)-1,5-naphthyridin-4-yl]ethyl}-4-methyl-4-piperidinamine dihydrochloride] | ≤ 2 µg/mL | –
COc1cc(F)c2ncc(Cl)c(CCN3CC[C@H](NCc4ccc5c(n4)NC(=O)CS5)[C@H](O)C3)c2c1.Cl.Cl (single isomer, unassigned; enantiomer 1) [Example 97] | ≤ 2 µg/mL | –
COc1cc(F)c2ncc(Cl)c(CCN3CC[C@H](NCc4ccc5c(n4)NC(=O)CS5)[C@H](F)C3)c2c1.Cl.Cl (single isomer, unassigned; enantiomer 1) [Example 142, cis-6-{[(1-{2-[3-chloro-8-fluoro-6-(methoxy)-4-quinolinyl]ethyl}-3-fluoro-4-piperidinyl)amino]methyl}-2H-pyrido[3,2-b][1,4]thiazin-3(4H)-one dihydrochloride Enantiomer 1] | ≤ 2 µg/mL | –
COc1cc(F)c2ncc(Cl)c(CCN3CCC(NCc4cc5c(cn4)OCCO5)CC3)c2c1 [Example 161, 1-{2-[3-chloro-8-fluoro-6-(methoxy)-4-quinolinyl]ethyl}-N-(2,3-dihydro[1,4]dioxino[2,3-c]pyridin-7-ylmethyl)-4-piperidinamine] | ≤ 2 µg/mL | –
COc1ccc2ncc(F)c(CCN3CC[C@@H](NCc4cc5c(cn4)OCCO5)[C@H](O)C3)c2c1.Cl.Cl (relative stereo) [Example 117, trans-4-[(2,3-dihydro[1,4]dioxino[2,3-c]pyridin-7-ylmethyl)amino]-1-{2-[3-fluoro-6-(methoxy)-4-quinolinyl]ethyl}-3-piperidinol dihydrochloride] | ≤ 2 µg/mL | –
COc1cc(F)c2ncc(F)c(CCN3CC[C@H](NC(=O)c4ccc5c(n4)NC(=O)CS5)[C@H](F)C3)c2c1.Cl (single isomer, unassigned; enantiomer 1) [Example 151, cis-N-(1-{2-[3,8-difluoro-6-(methoxy)-4-quinolinyl]ethyl}-3-fluoro-4-piperidinyl)-3-oxo-3,4-dihydro-2H-pyrido[3,2-b][1,4]thiazine-6-carboxamide hydrochloride Enantiomer 1] | ≤ 2 µg/mL | –
